Experimental data published in ChEMBL document CHEMBL1154361, “Oxiranylmethyloxy or thiiranylmethyloxy-azaxanthones and -acridone analogues as potential topoisomerase I inhibitors” (Bioorg Med Chem Lett, 2009).
Structures can show the parent of a compound that is named as a salt.

tested on: HeLa; assay: Cytotoxicity against human HeLa cells by MTT assay; assay type: functional, cell-based

| Structure (SMILES) | IC50 [µM] |
| --- | --- |
| COc1cccc2c1C(=O)c1c(O)c3c(c(O)c1C2=O)C[C@@](O)(C(=O)CO)C[C@@H]3O[C@H]1C[C@H](N)[C@H](O)[C@H](C)O1 [DOXORUBICIN HYDROCHLORIDE] | 1.08 |
| O=c1c2cccnc2oc2cc(OCC3CS3)cc(O)c12 (centres undefined) | 6.9 |
| O=c1c2cccnc2oc2cc(OCC3CO3)cc(O)c12 (centres undefined) | 22.1 |
| O=c1c2ccccc2[nH]c2cc(OCC3CS3)cc(O)c12 (centres undefined) | > 50 |
| COc1cc([C@@H]2c3cc4c(cc3[C@@H](O[C@@H]3O[C@@H]5CO[C@@H](C)O[C@H]5[C@H](O)[C@H]3O)[C@H]3COC(=O)[C@H]23)OCO4)cc(OC)c1O [ETOPOSIDE] | 2.15 |
| O=c1c2ccccc2[nH]c2cc(OCC3CO3)cc(O)c12 (centres undefined) | > 50 |
| CC[C@@]1(O)C(=O)OCc2c1cc1n(c2=O)Cc2cc3ccccc3nc2-1 [CAMPTOTHECIN] | 0.58 |
| O=c1c2ccccc2[nH]c2cc(OCC3CS3)cc(OCC3CS3)c12 (centres undefined) | 11.1 |
| O=c1c2ccccc2[nH]c2cc(OCC3CO3)cc(OCC3CO3)c12 (centres undefined) | > 50 |
| O=c1c2cccnc2oc2cc(OCC3CS3)cc(OCC3CS3)c12 (centres undefined) | 9.96 |

tested on: HT-29; assay: Cytotoxicity against human HT-29 cells by MTT assay; assay type: functional, cell-based

| Structure (SMILES) | IC50 [µM] |
| --- | --- |
| COc1cccc2c1C(=O)c1c(O)c3c(c(O)c1C2=O)C[C@@](O)(C(=O)CO)C[C@@H]3O[C@H]1C[C@H](N)[C@H](O)[C@H](C)O1 [DOXORUBICIN HYDROCHLORIDE] | 3.9 |
| O=c1c2cccnc2oc2cc(OCC3CS3)cc(O)c12 (centres undefined) | > 50 |
| O=c1c2cccnc2oc2cc(OCC3CO3)cc(O)c12 (centres undefined) | 26.3 |
| O=c1c2ccccc2[nH]c2cc(OCC3CS3)cc(O)c12 (centres undefined) | 33 |
| COc1cc([C@@H]2c3cc4c(cc3[C@@H](O[C@@H]3O[C@@H]5CO[C@@H](C)O[C@H]5[C@H](O)[C@H]3O)[C@H]3COC(=O)[C@H]23)OCO4)cc(OC)c1O [ETOPOSIDE] | 6.32 |
| O=c1c2ccccc2[nH]c2cc(OCC3CO3)cc(O)c12 (centres undefined) | > 50 |
| CC[C@@]1(O)C(=O)OCc2c1cc1n(c2=O)Cc2cc3ccccc3nc2-1 [CAMPTOTHECIN] | 1.07 |
| O=c1c2ccccc2[nH]c2cc(OCC3CS3)cc(OCC3CS3)c12 (centres undefined) | 23.2 |
| O=c1c2ccccc2[nH]c2cc(OCC3CO3)cc(OCC3CO3)c12 (centres undefined) | 29.3 |
| O=c1c2cccnc2oc2cc(OCC3CS3)cc(OCC3CS3)c12 (centres undefined) | > 50 |

tested on: DU-145; assay: Cytotoxicity against human DU145 cells by MTT assay; assay type: functional, cell-based

| Structure (SMILES) | IC50 [µM] |
| --- | --- |
| COc1cccc2c1C(=O)c1c(O)c3c(c(O)c1C2=O)C[C@@](O)(C(=O)CO)C[C@@H]3O[C@H]1C[C@H](N)[C@H](O)[C@H](C)O1 [DOXORUBICIN HYDROCHLORIDE] | 2.54 |
| O=c1c2cccnc2oc2cc(OCC3CS3)cc(O)c12 (centres undefined) | 15.8 |
| O=c1c2cccnc2oc2cc(OCC3CO3)cc(O)c12 (centres undefined) | 8.11 |
| O=c1c2ccccc2[nH]c2cc(OCC3CS3)cc(O)c12 (centres undefined) | 23 |
| COc1cc([C@@H]2c3cc4c(cc3[C@@H](O[C@@H]3O[C@@H]5CO[C@@H](C)O[C@H]5[C@H](O)[C@H]3O)[C@H]3COC(=O)[C@H]23)OCO4)cc(OC)c1O [ETOPOSIDE] | 5.16 |
| O=c1c2ccccc2[nH]c2cc(OCC3CO3)cc(O)c12 (centres undefined) | > 50 |
| CC[C@@]1(O)C(=O)OCc2c1cc1n(c2=O)Cc2cc3ccccc3nc2-1 [CAMPTOTHECIN] | 1 |
| O=c1c2ccccc2[nH]c2cc(OCC3CS3)cc(OCC3CS3)c12 (centres undefined) | 23.2 |
| O=c1c2ccccc2[nH]c2cc(OCC3CO3)cc(OCC3CO3)c12 (centres undefined) | 30.9 |
| O=c1c2cccnc2oc2cc(OCC3CS3)cc(OCC3CS3)c12 (centres undefined) | 21 |

tested on: MDA-MB-231; assay: Cytotoxicity against human MDA-MB-231 cells by MTT assay; assay type: functional, cell-based

| Structure (SMILES) | IC50 [µM] |
| --- | --- |
| COc1cccc2c1C(=O)c1c(O)c3c(c(O)c1C2=O)C[C@@](O)(C(=O)CO)C[C@@H]3O[C@H]1C[C@H](N)[C@H](O)[C@H](C)O1 [DOXORUBICIN HYDROCHLORIDE] | 1.67 |
| O=c1c2cccnc2oc2cc(OCC3CS3)cc(O)c12 (centres undefined) | 18.2 |
| O=c1c2cccnc2oc2cc(OCC3CO3)cc(O)c12 (centres undefined) | 24.3 |
| O=c1c2ccccc2[nH]c2cc(OCC3CS3)cc(O)c12 (centres undefined) | 21.4 |
| COc1cc([C@@H]2c3cc4c(cc3[C@@H](O[C@@H]3O[C@@H]5CO[C@@H](C)O[C@H]5[C@H](O)[C@H]3O)[C@H]3COC(=O)[C@H]23)OCO4)cc(OC)c1O [ETOPOSIDE] | 3.5 |
| O=c1c2ccccc2[nH]c2cc(OCC3CO3)cc(O)c12 (centres undefined) | 18.6 |
| CC[C@@]1(O)C(=O)OCc2c1cc1n(c2=O)Cc2cc3ccccc3nc2-1 [CAMPTOTHECIN] | 0.68 |
| O=c1c2ccccc2[nH]c2cc(OCC3CS3)cc(OCC3CS3)c12 (centres undefined) | 8.02 |
| O=c1c2ccccc2[nH]c2cc(OCC3CO3)cc(OCC3CO3)c12 (centres undefined) | 28.9 |
| O=c1c2cccnc2oc2cc(OCC3CS3)cc(OCC3CS3)c12 (centres undefined) | 13 |

tested on: HL-60; assay: Cytotoxicity against human HL60 cells by MTT assay; assay type: functional, cell-based

| Structure (SMILES) | IC50 [µM] |
| --- | --- |
| COc1cccc2c1C(=O)c1c(O)c3c(c(O)c1C2=O)C[C@@](O)(C(=O)CO)C[C@@H]3O[C@H]1C[C@H](N)[C@H](O)[C@H](C)O1 [DOXORUBICIN HYDROCHLORIDE] | 0.88 |
| O=c1c2cccnc2oc2cc(OCC3CS3)cc(O)c12 (centres undefined) | 20.1 |
| O=c1c2cccnc2oc2cc(OCC3CO3)cc(O)c12 (centres undefined) | 24.8 |
| O=c1c2ccccc2[nH]c2cc(OCC3CS3)cc(O)c12 (centres undefined) | 23 |
| COc1cc([C@@H]2c3cc4c(cc3[C@@H](O[C@@H]3O[C@@H]5CO[C@@H](C)O[C@H]5[C@H](O)[C@H]3O)[C@H]3COC(=O)[C@H]23)OCO4)cc(OC)c1O [ETOPOSIDE] | 0.93 |
| O=c1c2ccccc2[nH]c2cc(OCC3CO3)cc(O)c12 (centres undefined) | 12.5 |
| CC[C@@]1(O)C(=O)OCc2c1cc1n(c2=O)Cc2cc3ccccc3nc2-1 [CAMPTOTHECIN] | 0.067 |
| O=c1c2ccccc2[nH]c2cc(OCC3CS3)cc(OCC3CS3)c12 (centres undefined) | 7.73 |
| O=c1c2ccccc2[nH]c2cc(OCC3CO3)cc(OCC3CO3)c12 (centres undefined) | 22 |
| O=c1c2cccnc2oc2cc(OCC3CS3)cc(OCC3CS3)c12 (centres undefined) | 10.5 |

target: T1, DNA topoisomerase 1 (Homo sapiens) (UniProt P11387); assay: Inhibition of human topoisomerase 1 at 20 uM
T1 sequence (whole entry): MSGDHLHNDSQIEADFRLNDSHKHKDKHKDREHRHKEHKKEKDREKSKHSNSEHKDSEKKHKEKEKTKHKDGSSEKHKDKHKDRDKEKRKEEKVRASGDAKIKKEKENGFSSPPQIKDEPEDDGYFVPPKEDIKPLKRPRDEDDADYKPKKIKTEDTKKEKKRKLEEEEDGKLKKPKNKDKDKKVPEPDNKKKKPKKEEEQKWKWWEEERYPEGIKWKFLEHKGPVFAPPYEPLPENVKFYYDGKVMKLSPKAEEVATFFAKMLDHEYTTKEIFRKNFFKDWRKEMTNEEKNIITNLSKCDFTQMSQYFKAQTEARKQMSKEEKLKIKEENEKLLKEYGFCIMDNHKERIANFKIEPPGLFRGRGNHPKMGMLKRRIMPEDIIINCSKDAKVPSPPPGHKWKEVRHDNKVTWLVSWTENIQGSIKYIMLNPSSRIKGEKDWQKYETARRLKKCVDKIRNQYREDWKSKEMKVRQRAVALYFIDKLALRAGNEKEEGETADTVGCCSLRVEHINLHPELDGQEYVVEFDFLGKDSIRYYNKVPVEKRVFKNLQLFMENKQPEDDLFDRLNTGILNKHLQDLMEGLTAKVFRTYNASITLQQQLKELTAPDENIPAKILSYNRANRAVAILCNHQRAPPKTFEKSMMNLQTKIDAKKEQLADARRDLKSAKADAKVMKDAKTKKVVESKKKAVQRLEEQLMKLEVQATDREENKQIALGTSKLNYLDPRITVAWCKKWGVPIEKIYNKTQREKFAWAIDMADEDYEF

| Structure (SMILES) | inhibition [%] |
| --- | --- |
| O=c1c2cccnc2oc2cc(OCC3CS3)cc(O)c12 (centres undefined) | 26.7 |
| O=c1c2cccnc2oc2cc(OCC3CO3)cc(O)c12 (centres undefined) | 1.8 |
| O=c1c2ccccc2[nH]c2cc(OCC3CS3)cc(O)c12 (centres undefined) | 0 |
| O=c1c2ccccc2[nH]c2cc(OCC3CO3)cc(O)c12 (centres undefined) | 10.8 |
| O=c1c2ccccc2[nH]c2cc(OCC3CS3)cc(OCC3CS3)c12 (centres undefined) | 0 |
| O=c1c2ccccc2[nH]c2cc(OCC3CO3)cc(OCC3CO3)c12 (centres undefined) | 2.5 |
| O=c1c2cccnc2oc2cc(OCC3CS3)cc(OCC3CS3)c12 (centres undefined) | 5.2 |

target: T1, DNA topoisomerase 1 (Homo sapiens); assay: Inhibition of human topoisomerase 1 at 100 uM

| Structure (SMILES) | inhibition [%] |
| --- | --- |
| O=c1c2cccnc2oc2cc(OCC3CS3)cc(O)c12 (centres undefined) | 50.3 |
| O=c1c2cccnc2oc2cc(OCC3CO3)cc(O)c12 (centres undefined) | 0 |
| O=c1c2ccccc2[nH]c2cc(OCC3CS3)cc(O)c12 (centres undefined) | 2.3 |
| O=c1c2ccccc2[nH]c2cc(OCC3CO3)cc(O)c12 (centres undefined) | 9.1 |
| O=c1c2ccccc2[nH]c2cc(OCC3CS3)cc(OCC3CS3)c12 (centres undefined) | 0 |
| O=c1c2ccccc2[nH]c2cc(OCC3CO3)cc(OCC3CO3)c12 (centres undefined) | 0 |
| O=c1c2cccnc2oc2cc(OCC3CS3)cc(OCC3CS3)c12 (centres undefined) | 0 |

target: DNA topoisomerase 2-alpha (Homo sapiens) (UniProt P11388); assay: Inhibition of human topoisomerase 2 at 20 uM
Sequence (P11388 whole entry): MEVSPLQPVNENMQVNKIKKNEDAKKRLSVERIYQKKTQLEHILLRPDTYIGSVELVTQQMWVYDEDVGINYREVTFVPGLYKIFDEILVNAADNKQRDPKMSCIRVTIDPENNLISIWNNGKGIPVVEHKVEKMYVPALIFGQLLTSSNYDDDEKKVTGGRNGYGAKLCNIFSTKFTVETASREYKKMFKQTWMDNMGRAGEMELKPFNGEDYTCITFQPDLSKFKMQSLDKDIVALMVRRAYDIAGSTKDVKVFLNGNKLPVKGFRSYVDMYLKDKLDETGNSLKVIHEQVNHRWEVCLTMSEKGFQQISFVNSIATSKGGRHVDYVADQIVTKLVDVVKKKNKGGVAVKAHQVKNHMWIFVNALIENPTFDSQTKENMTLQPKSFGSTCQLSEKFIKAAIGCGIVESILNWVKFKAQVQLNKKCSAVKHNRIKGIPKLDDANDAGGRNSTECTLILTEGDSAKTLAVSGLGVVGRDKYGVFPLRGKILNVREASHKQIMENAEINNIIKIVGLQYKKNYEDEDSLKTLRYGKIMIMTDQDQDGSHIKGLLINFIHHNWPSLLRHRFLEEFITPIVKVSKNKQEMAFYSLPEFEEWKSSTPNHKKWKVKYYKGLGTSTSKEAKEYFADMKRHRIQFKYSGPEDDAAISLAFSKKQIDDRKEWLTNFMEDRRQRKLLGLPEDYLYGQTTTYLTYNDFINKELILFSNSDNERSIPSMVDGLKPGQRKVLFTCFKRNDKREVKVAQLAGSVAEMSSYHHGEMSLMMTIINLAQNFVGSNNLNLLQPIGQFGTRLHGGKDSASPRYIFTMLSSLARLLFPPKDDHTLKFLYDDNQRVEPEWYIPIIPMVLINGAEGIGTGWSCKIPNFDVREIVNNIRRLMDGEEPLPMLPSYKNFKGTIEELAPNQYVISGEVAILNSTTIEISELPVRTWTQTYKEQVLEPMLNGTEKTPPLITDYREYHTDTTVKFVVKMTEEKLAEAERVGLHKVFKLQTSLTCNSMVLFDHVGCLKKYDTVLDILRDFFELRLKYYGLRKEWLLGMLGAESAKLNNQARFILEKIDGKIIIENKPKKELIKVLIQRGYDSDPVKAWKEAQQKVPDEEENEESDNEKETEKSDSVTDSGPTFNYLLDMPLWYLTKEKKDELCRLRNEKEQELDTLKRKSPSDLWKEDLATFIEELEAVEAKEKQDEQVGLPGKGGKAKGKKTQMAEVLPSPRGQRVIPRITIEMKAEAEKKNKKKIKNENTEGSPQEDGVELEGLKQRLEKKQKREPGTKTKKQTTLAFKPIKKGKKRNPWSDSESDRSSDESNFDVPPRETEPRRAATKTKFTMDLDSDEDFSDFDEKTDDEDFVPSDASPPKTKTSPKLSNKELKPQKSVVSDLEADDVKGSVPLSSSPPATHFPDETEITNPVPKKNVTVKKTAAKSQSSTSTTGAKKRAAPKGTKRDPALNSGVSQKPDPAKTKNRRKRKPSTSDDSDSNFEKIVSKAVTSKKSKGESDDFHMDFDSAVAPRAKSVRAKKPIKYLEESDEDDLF

| Structure (SMILES) | inhibition [%] |
| --- | --- |
| O=c1c2cccnc2oc2cc(OCC3CS3)cc(O)c12 (centres undefined) | 9.2 |
| O=c1c2cccnc2oc2cc(OCC3CO3)cc(O)c12 (centres undefined) | 8.3 |
| O=c1c2ccccc2[nH]c2cc(OCC3CS3)cc(O)c12 (centres undefined) | 8.1 |
| COc1cc([C@@H]2c3cc4c(cc3[C@@H](O[C@@H]3O[C@@H]5CO[C@@H](C)O[C@H]5[C@H](O)[C@H]3O)[C@H]3COC(=O)[C@H]23)OCO4)cc(OC)c1O [ETOPOSIDE] | 13.4 |
| O=c1c2ccccc2[nH]c2cc(OCC3CO3)cc(O)c12 (centres undefined) | 12.9 |
| O=c1c2ccccc2[nH]c2cc(OCC3CS3)cc(OCC3CS3)c12 (centres undefined) | 8.5 |
| O=c1c2ccccc2[nH]c2cc(OCC3CO3)cc(OCC3CO3)c12 (centres undefined) | 8.7 |
| O=c1c2cccnc2oc2cc(OCC3CS3)cc(OCC3CS3)c12 (centres undefined) | 8.6 |

target: DNA topoisomerase 2-alpha (Homo sapiens) (UniProt P11388); assay: Inhibition of human topoisomerase 2 at 100 uM

| Structure (SMILES) | inhibition [%] |
| --- | --- |
| O=c1c2cccnc2oc2cc(OCC3CS3)cc(O)c12 (centres undefined) | 19.5 |
| O=c1c2cccnc2oc2cc(OCC3CO3)cc(O)c12 (centres undefined) | 30.3 |
| O=c1c2ccccc2[nH]c2cc(OCC3CS3)cc(O)c12 (centres undefined) | 8.7 |
| O=c1c2ccccc2[nH]c2cc(OCC3CO3)cc(O)c12 (centres undefined) | 18.1 |
| O=c1c2ccccc2[nH]c2cc(OCC3CS3)cc(OCC3CS3)c12 (centres undefined) | 6.9 |
| O=c1c2ccccc2[nH]c2cc(OCC3CO3)cc(OCC3CO3)c12 (centres undefined) | 13.2 |
| O=c1c2cccnc2oc2cc(OCC3CS3)cc(OCC3CS3)c12 (centres undefined) | 6.7 |
